Reference: patent US10507209B2, “Quinazoline derivatives substituted by aniline, preparation method and use thereof” (XUANZHU PHARMA CO., LTD., priority 2010, dated 2019)
pIC50: −log10 of the molar value. Structures can show the parent of a compound that is named as a salt. Where two headings read alike, the source gives them in different places. Marks after values point to notes of the source that are not given here. Blank lines part the entries; values can stand above or below the compound they belong to.

How the values were obtained:
[1] = system: A431 cells; assay: In vitro cellular inhibitory activity on A431 (XTT); assay type: cell-based; conditions: Homo sapiens, A-431, 72 h, read-out: IC50 A431 cells
[2] = system: H1975 cells; assay: In vitro cellular inhibitory activity on H1975 (XTT); assay type: cell-based; conditions: Homo sapiens, NCI-H1975, 72 hours
From the text: Table 2 in vitro cellular inhibitory activities on H1975 (NSCLC, nonsmall-cell lung cancer)

[3] = system: Calu-3 cells; assay: In vitro cellular inhibitory activity on Calu-3 (XTT); assay type: cell-based; conditions: Homo sapiens, 72 hours
From the text: Table 3 in vitro cellular inhibitory activities on Calu-3 (NSCLC nonsmall-cell lung cancer)

[4] = system: human-derived LN-229 glioblastoma xenograft; assay: In vivo pharmacodynamic evaluation, human-derived LN-229 glioblastoma xenograft; parameters: species or system BALB/c nude mice; conditions: 28 days after the administration
[5] = system: BT474 cells; assay: In vitro cellular inhibitory activity on BT474 mammary cancer cells (XTT); assay type: cell-based; conditions: Homo sapiens, BT-474, 72 hours
[6] = system: NCI-N87 cell; assay: In vitro cellular inhibitory activity on NCI-N87 gastric carcinoma cells (XTT); assay type: cell-based; conditions: Homo sapiens, read-out: IC50 NCI-N87 cell
[7] = system: KYSE270 human esophageal carcinoma model; conditions: for Relative Tumor Volume / T/C / TGI / Tumor Volume: 21 days after the administration
[8] = system: SKOV-3 human-derived xenografts model in ovarian cancer; assay: In vivo pharmacodynamic evaluation, SKOV-3 human-derived xenografts model in ovarian cancer; parameters: species or system BALB/c nude mice; conditions: 14 days after the administration
Procedure: The tumor was then stripped under sterile conditions to remove the necrotic tissues and select the well developed tumor tissues which were inoculated subcutaneously into an animal again. In this way the tumor tissues were subjected to passage for twice in the body of the mice. […] The tumor blocks were inoculated subcutaneously to the right coastal region of the mice with an inoculation needle. […] The tumor size was measured twice a week with an […] caliper.

[9] = system: human-derived xenograft model HN2170; assay: In vivo pharmacodynamic evaluation, head and neck cancer xenograft model HN2170; parameters: species or system BALB/c nude mice; conditions: for Tumor Volume (Day 0): Day 0 (grouping, baseline); for T/C / TGI / Tumor Volume: 25 days after the administration
Procedure: HN2170, head and neck cancer from a patient.
They were administered totally 25 days.

[10] = system: 5637 cells; assay: In vitro cellular inhibitory activity on 5637 bladder carcinoma cells (CTG kit); assay type: cell-based; conditions: Homo sapiens, 72 hours
Procedure: The effect of the compound to be tested on 5637 (bladder carcinoma) cell proliferation was tested using CTG kit.
535 μl DMSO was added into an EP tube filled with 3.32 mg of Compound 18 and evenly shaken (10 mM);
590 μl DMSO was added into an EP tube filled with 3.16 mg of Compound AZD9291 and evenly shaken (10 mM);
The compound was diluted with DMSO by 4-fold from 10 mM to 2.5 mM, 625 μM, 156 μM, 39 μM, 9.8 μM, 2.4 μM, 0.61 μM, 0.15 μM, 0.04 μM in turn.
Formulating a stock solution of a 10-fold compound: 2 μl 1000-fold Compound 18 or AZD9291 was respectively added into a 198 μl culture medium and evenly shaken.
1) Plating in the 384-well plate with 250 cells/well/22.5 ul;
2) After 24 hours, each well was added with 2.5 ul 10-fold drug which was well diluted to make the final concentration of 10 μM, 2.5 μM, 625 nM, 156 nM, 39 nM, 9.8 nM, 2.5 nM, 0.610 nM, 0.153 nM, 0.04 nM.
3) The plate was placed in the CO2 incubator and incubated at 37° C. for 72 hours
2) Each well was added with 25 ul CellTiter-Glo® agent, mixed for 2 minutes and placed at room temperature while being kept in darkness for 10 minutes.
3) Reading the […] using EnVision 2104 Multilabel Reader.

[11] = system: human-derived cholangiocarcinoma (10114) xenograft model; assay: In vivo pharmacodynamic evaluation, human-derived cholangiocarcinoma (10114) xenograft model; parameters: species or system BALB/c nude mice
Procedure: 10114, cholangiocarcinoma from a patient.
Tumor tissues of human cholangiocarcinoma (10114) were cut into tumor blocks of volume of 3 mm×3 mm×3 mm which were inoculated subcutaneously in mice. The tumor volume was observed and measured. […] The efficacy was evaluated according to the tumor growth inhibition (TGI).
The experimental data were analyzed using statistical software SPSS 20.0. The data associated with the tumor volume was analyzed with T-test. **P<0.05 compared with the control group represents significant statistical difference.

[12] = system: gallbladder carcinoma xenografts model GL6899; assay: In vivo pharmacodynamic evaluation, gallbladder carcinoma xenografts model GL6899; parameters: species or system BALB/c nude mice
Procedure: GL6899, gallbladder carcinoma from a patient
Comparison between the two groups of data was tested by independent sample t test.

[13] = 20 mg/kg oral once a day, 21 days after the administration
[14] = 20 mg/kg p.o. once a day, 21 days

pIC50 [1]: 6.40
pIC50 [2]: 6.80
pIC50 [3]: 6.16
Compound: C=CC(=O)Nc1cc2c(Nc3ccc(F)c(Cl)c3)ncnc2cc1OCCCN1CCOCC1 [CI-1033 hydrochloride, reference compound]

pIC50 [2]: 6.51
Compound: C=CC(=O)Nc1cc2c(Nc3ccc(F)c(Cl)c3)ncnc2cc1OCC[C@@H]1[C@H]2CN(C)C[C@@H]12 [Compound 8]
T/C ([4]; 30 mg/kg oral once a day): 21.3%
TGI ([4]; 30 mg/kg oral once a day): 78.7%
Tumor Volume ([4]; 30 mg/kg oral once a day): 121 ± 17 mm^3

pIC50 [2]: 6.98
Compound: C=CC(=O)Nc1cc2c(Nc3ccc(F)c(Cl)c3)ncnc2cc1OCCC1CC2(CCN(C)CC2)C1 [Compound 19 hydrochloride, N-[4-(3-chloro-4-fluorophenylamino)-7-(2-(7-methyl-7-azaspiro[3.5]nonan-2-yl)ethoxy)quinazolin-6-yl]-acrylamide hydrochloride]

pIC50 [2]: 5.34
pIC50 [3]: 7.03
Compound: CS(=O)(=O)CCNCc1ccc(-c2ccc3ncnc(Nc4ccc(OCc5cccc(F)c5)c(Cl)c4)c3c2)o1 [Lapatinib ditosylate, lapatinib ditosylate, reference compound]

pIC50 ([6]; NCI-N87, 72 h): 7.92
Compound: CS(=O)(=O)CCNCc1ccc(-c2ccc3ncnc(Nc4ccc(OCc5cccc(F)c5)c(Cl)c4)c3c2)o1 [Lapatinib, reference compound]
T/C ([4]; 200 mg/kg oral once a day): 45.6%
TGI ([4]; 200 mg/kg oral once a day): 54.4%
Tumor Volume ([4]; 200 mg/kg oral once a day): 261 ± 42 mm^3
T/C ([8]; 80 mg/kg oral once a day): 83.4%
Tumor Volume ([8]; 80 mg/kg oral once a day): 1339 ± 167 mm^3

More lines, now with the values behind:

Compound: C=CC(=O)Nc1cc2c(Nc3ccc(F)c(Cl)c3)ncnc2cc1OCC1CC2(CCN(C)CC2)C1 [Compound 18, N-[4-(3-chloro-4-fluorophenylamino)-7-((7-methyl-7-azaspiro[3.5]nonan-2-yl)methoxy)quinazolin-6-yl]-acrylamide]
T/C ([4]; 10 mg/kg oral once a day): 45.6%
TGI ([4]; 10 mg/kg oral once a day): 54.4%
Tumor Volume ([4]; 10 mg/kg oral once a day): 260 ± 27 mm^3
T/C ([4]; 20 mg/kg oral once a day): 34.0%
TGI ([4]; 20 mg/kg oral once a day): 66.0%
Tumor Volume ([4]; 20 mg/kg oral once a day): 191 ± 11 mm^3
pIC50 [5]: 8.01
pIC50 ([6]; NCI-N87, 72 hours, XTT): 8.15
Tolerability in mice with tumor ([7]; 10 mg/kg and 20 mg/kg): can tolerate the tested drugs well
Relative Tumor Volume ([7]; 10 mg/kg oral once a day): 0.33 ± 0.05
T/C ([7]; 10 mg/kg oral once a day): 2%
TGI ([7]; 10 mg/kg oral once a day): 98%
Tumor Volume ([7]; 10 mg/kg oral once a day): 40 ± 6 mm^3
Relative Tumor Volume ([7]; 20 mg/kg oral once a day): 0.11 ± 0.02
T/C ([7]; 20 mg/kg oral once a day): 1%
TGI ([7]; 20 mg/kg oral once a day): 99%
Tumor Volume ([7]; 20 mg/kg oral once a day): 14 ± 3 mm^3
T/C ([8]; 10 mg/kg oral once a day): 49.1%
TGI ([8]; 10 mg/kg oral once a day): 50.9%
Tumor Volume ([8]; 10 mg/kg oral once a day): 798 ± 88 mm^3
T/C ([8]; 20 mg/kg oral once a day): 32.1%
TGI ([8]; 20 mg/kg oral once a day): 67.9%
Tumor Volume ([8]; 20 mg/kg oral once a day): 540 ± 86 mm^3
Tumor Volume (Day 0) ([9]; 20 mg/kg group): 143.1 ± 22.9 mm^3
T/C ([9]; 20 mg/kg oral once a day): 6.5%
TGI ([9]; 20 mg/kg oral once a day): 93.5%
Tumor Volume ([9]; 20 mg/kg oral once a day): 46.3 ± 10.6*** mm^3
pIC50 [2]: 7.03
pIC50 [10]: 7.41
pIC50 [3]: 7.42
Tumor Volume On Day 0 ([11]; 20 mg/kg group, Day 0 (grouping, baseline)): 138.6 ± 8.9 mm^3
Relative Tumor Volume [11, 13]: 77.13 ± 9.34%
T/C [11, 13]: 18.1%
TGI [11, 13]: 81.9%
Tumor Volume [11, 13]: 107.53 ± 15.80*** mm^3
Tumor Volume on day 0 ([12]; 20 mg/kg group, day 0 (grouping, baseline)): 135.53 ± 9.60 mm^3
T/C [12, 14]: 2.6%
TGI [12, 14]: 97.4%
Tumor Volume after adminstration of 21 days [12, 14]: 26.63 ± 2.37*** mm^3

Compound: C#Cc1cccc(Nc2ncnc3cc(OCCOC)c(OCCOC)cc23)c1 [Erlotinib hydrochloride, erlotinib hydrochloride, reference compound]
pIC50 [2]: 5.40
pIC50 [3]: 5.88

Compound: CCOc1cc2ncc(C#N)c(Nc3ccc(OCc4ccccn4)c(Cl)c3)c2cc1NC(=O)/C=C/CN(C)C [Neratinib, reference compound]
T/C ([4]; 80 mg/kg oral once a day): 34.3%
TGI ([4]; 80 mg/kg oral once a day): 65.7%
Tumor Volume ([4]; 80 mg/kg oral once a day): 197 ± 20 mm^3
Tumor Volume (Day 0) ([9]; 80 mg/kg group): 142.4 ± 23.4 mm^3
T/C ([9]; 80 mg/kg oral once a day): 7.2%
TGI ([9]; 80 mg/kg oral once a day): 92.8%
Tumor Volume ([9]; 80 mg/kg oral once a day): 53.7 ± 10.3*** mm^3
